Data reported in patent publication US20240033737A1, “DEVICES AND METHODS FOR CONTINUOUS DIELECTROPHORESIS CELL SORTING TO ISOLATE DIFFERENT POPULATIONS OF CELLS, AND APPLICATIONS THEREOF” (The Regents of the University of California, priority 2022, published 2024).

Columns and labels:
Format in all cases: cell-based
D54 cells [1] = experiment: TMZ resistance (TMZ IC50 fold change) of cells plated after buffer incubation; details: 5 μM ROCKi in DEP buffer; cells plated in normal growth medium without ROCKi
Description: (§1) FIG. 2A-D presents optimization of buffer conditions for DEP-based sorting of GBM cells. (A) Viability of D54 cells immediately after 6-hour RT incubation in regular growth media, DEP buffer, or DEP buffer supplemented with 5 μM ROCKi was measured by trypan blue staining. […] (B) After 6-hour incubation in media or buffers, D54 cells were plated in normal growth conditions and the number of cells measured after 2 days by XTT assay. […] Acutely isolated cells (Media control, 0 h) served as a control. (D) D54 cells were plated after 6-hour incubation in buffers and after 1 day were exposed to TMZ to assess TMZ resistance. TMZ IC50 is shown as fold change relative to media control, 0 h, and no difference in TMZ resistance was detected across samples. Error bars show SD. N≥3, one-way ANOVA, Tukey post hoc for multiple comparisons, *p<0.05, **p<0.01, ***p<0.001, ****p<0.0001.
(A) Viability of D54 cells immediately after 6-hour incubation in regular growth media, DEP buffer, or DEP buffer supplemented with 1, 5, or 10 μM ROCKi was measured by trypan blue staining. Acutely isolated cells (Media control, 0 h) served as a control. […] (C) There was no significant difference in the diameters of D54 cells in any of the conditions. (D) There was no significant difference in TMZ resistance as measured by fold change in IC50 relative to acutely isolated cells (Media control, 0 h). Error bars show SD. […]

D54 cells [2] = experiment: D54 viability by trypan blue staining immediately after incubation in media or DEP buffer; details: for viability in the DEP buffer: 6-hour incubation
Description: (A) Schematic describes experimental paradigm to test D54 viability after incubation in cell culture media or DEP buffer. Adherent D54 cells were dissociated then resuspended in media or DEP buffer and incubated on ice or at room temperature (RT). Cell viability was tested immediately after incubation by trypan blue. Equivalent numbers of cells were plated per condition and adherent cells observed after 1-2 days by phase contrast microscopy to assess cell recovery. (B) Cell viability after 6-hour incubation remained high for all conditions. Viability of D54 cells in DEP buffer may be slightly lower than that of cells in media. N=1. (C) Phase-contrast images of D54 cells stained with trypan blue after 6-hour incubation show high cell viability and increased clustering of cells incubated in media at RT. (D) Phase contrast images of adherent D54 cells one day after 6-hour incubation in media or DEP buffer. Cells incubated in media at RT show the best recovery, indicated by cell number and cell morphology. (E) Phase contrast images of adherent D54 cells one day after 0-6 hour incubation in media or DEP buffer. Cell recovery decreases with increasing incubation time in DEP buffer.
as §1, with “N≥3, one-way ANOVA, Tukey post hoc for multiple comparisons, *p<0.05, **p<0.01, ***p<0.001, ****p<0.0001.” left out
(A) Viability of D54 cells immediately after 6-hour incubation in regular growth media, DEP buffer, or DEP buffer supplemented with 1, 5, or 10 μM ROCKi was measured by trypan blue staining. […]
(§2) DEP buffer (DB): 8.5% w/v sucrose, 0.3% w/v glucose, 0.725% RPMI. […] (B) Cells were plated after incubation and the confluency (% culture surface area covered by cells) of adherent cells measured 1 day later using ImageJ. […]
(§3) Assessing the viability of D54 cells in a DEP buffer used for sorting mouse and human neural stem and progenitor cells. […] Further, the effect of temperature of the buffer (ice or room temperature) on cell viability was also evaluated. […] After the 6-hour buffer incubation, the cells were plated under normal growth conditions and assessed by phase contrast imaging 1-2 days later to assess cell survival and growth. […]

D54 cells [3] = experiment: Recovery of adherent cells after buffer incubation and plating (phase contrast imaging, confluency by ImageJ); details: 5 μM ROCKi in DEP buffer, 6 hours incubation, among DEP buffers, N=1
Description: (A) Schematic describes experimental paradigm to test D54 viability after incubation in cell culture media or DEP buffer. Adherent D54 cells were dissociated then resuspended in media or DEP buffer and incubated on ice or at room temperature (RT). Cell viability was tested immediately after incubation by trypan blue. Equivalent numbers of cells were plated per condition and adherent cells observed after 1-2 days by phase contrast microscopy to assess cell recovery. (B) Cell viability after 6-hour incubation remained high for all conditions. Viability of D54 cells in DEP buffer may be slightly lower than that of cells in media. N=1. […]
as §2, §3

D54 cells [4] = experiment: XTT assay of cell numbers after plating and growth for 2 days; details: 5 μM ROCKi in DEP buffer vs DEP buffer without ROCKi, 6-hour incubation
Description: as §1
D54 cell viability studies conducted with a modified DEP buffer that included ROCKi. ROCK inhibitor (ROCKi) was included in the DEP buffer at concentrations ranging from 1-10 μM. […] Addition of 5 μM ROCKi to the DEP buffer improved D54 acute viability, as assessed by trypan blue staining, and led to greater than 90% viable cells (see FIG. 2A). An XTT assay was used to measure cell numbers after plating and growth for 2 days.

Which results are given for C[C@@H](N)[C@H]1CC[C@H](C(=O)Nc2ccncc2)CC1 [ROCKi, Y27632]?
TMZ resistance (fold change in TMZ IC50) (D54 cells [1]): did not alter TMZ resistance; viability in the DEP buffer (D54 cells [2]; 1 μM ROCKi in DEP buffer): improved viability; viable cells (acute viability, trypan blue) (D54 cells [2]; 5 μM ROCKi in DEP buffer, 6-hour RT incubation): greater than 90%; viability in the DEP buffer (D54 cells [2]; 5 μM ROCKi in DEP buffer): improved viability; best concentration for D54 cell viability (D54 cells [2]; ROCKi in DEP buffer at 1-10 μM): 5 µM; confluency of adherent cells 1 day after plating (D54 cells [3]): the most confluency; cell numbers after plating and growth for 2 days (XTT) (D54 cells [4]): significantly increased cell numbers
